Test: xn = mol fraction of the nth substance listed
Conditions: Liquid, Taylor dispersion method, x1 = 0

N#N [nitrogen] + O
Conditions	binary diffusion coefficient [m2/s]
298 K, 12000 kPa	1.99e-09
298 K, 25000 kPa	2e-09
298 K, 44600 kPa	1.98e-09
323 K, 14600 kPa	3.28e-09
323 K, 25100 kPa	3.47e-09
323 K, 45000 kPa	3.2e-09
373 K, 14800 kPa	6.62e-09
373 K, 45000 kPa	6.42e-09
423 K, 26900 kPa	1.07e-08
423 K, 45900 kPa	1.04e-08

O=C=O [carbon dioxide] + O
Conditions	binary diffusion coefficient [m2/s]
298 K, 14000 kPa	2.23e-09
298 K, 31600 kPa	2.26e-09
298 K, 47700 kPa	2.22e-09
323 K, 14200 kPa	3.64e-09
323 K, 31800 kPa	3.72e-09
323 K, 48600 kPa	3.94e-09
348 K, 14900 kPa	5.39e-09
348 K, 31800 kPa	5.31e-09
348 K, 49300 kPa	5.37e-09
373 K, 14900 kPa	7.42e-09
373 K, 31000 kPa	7.52e-09
373 K, 48500 kPa	7.68e-09
398 K, 14300 kPa	9.95e-09
398 K, 30900 kPa	1.01e-08
398 K, 48000 kPa	1.02e-08
423 K, 14300 kPa	1.23e-08
423 K, 48000 kPa	1.22e-08
